{"source": "patent US12037340B2", "about": "“Pentacyclic derivatives as Zika virus inhibitors” (Gilead Sciences, Inc., priority 2021, dated 2024)"}
{"tested_on": "ZIKV", "assay": "microbe, parasite or virus in culture", "assay_type": "cell-based, Zika virus", "details": "48 hrs", "units": {"EC50": "nM"}}
{"smiles": "COC(=O)N[C@H](C(=O)N1[C@H](c2nc(Cl)c(-c3ccc4c(c3)COc3cc5c(ccc6nc([C@@H]7C[C@@H]8CCC[C@@H]8N7C(=O)[C@@H](NC(=O)OC)C(C)C)[nH]c65)cc3-4)[nH]2)C[C@@H]2CCC[C@@H]21)C(C)C", "note": "[Compound 34, methyl ((S)-1-((2S,3aS,6aS)-2-(4-chloro-5-(2-((2S,3aS,6aS)-1-((methoxycarbonyl)-L-valyl)octahydrocyclopenta[b]pyrrol-2-yl)-1,11-dihydroisochromeno[4′,3′:6,7]naphtho[1,2-d]imidazol-9-yl)-1H-imidazol-2-yl)hexahydrocyclopenta[b]pyrrol-l(2H)-yl)-3-methyl-1-oxobutan-2-yl)carbamate]", "EC50": 30.6}
{"smiles": "CC[C@H](C)[C@H](NC(=O)OC)C(=O)N1[C@H](c2nc(Cl)c(-c3ccc4c(c3)COc3cc5c(ccc6nc([C@@H]7C[C@@H]8CCC[C@@H]8N7C(=O)[C@@H](NC(=O)OC)[C@@H](C)CC)[nH]c65)cc3-4)[nH]2)C[C@@H]2CCC[C@@H]21", "note": "[Compound 35, methyl ((2S,3S)-1-((2S,3aS,6aS)-2-(4-chloro-5-(2-((2S,3aS,6aS)-1-((methoxycarbonyl)-L-isoleucyl)octahydrocyclopenta[b]pyrrol-2-yl)-1,11-dihydroisochromeno[4′,3′:6,7]naphtho[1,2-d]imidazol-9-yl)-1H-imidazol-2-yl)hexahydrocyclopenta[b]pyrrol-l(2H)-yl)-3-methyl-1-oxopentan-2-yl)carbamate]", "EC50": 20.9}
{"smiles": "COC(=O)N[C@H](C(=O)N1[C@H](c2nc(Cl)c(-c3ccc4c(c3)COc3cc5c(ccc6nc([C@@H]7C[C@@H]8CCC[C@@H]8N7C(=O)[C@@H](NC(=O)OC)C7C[C@@H](C)O[C@H](C)C7)[nH]c65)cc3-4)[nH]2)C[C@@H]2CCC[C@@H]21)C1C[C@@H](C)O[C@H](C)C1", "note": "(stereo partly drawn) [Compound 36, methyl ((S)-2-((2S,3aS,6aS)-2-(4-chloro-5-(2-((2S,3aS,6aS)-1-((S)-2-((2R,6R)-2,6-dimethyltetrahydro-2H-pyran-4-yl)-2-((methoxycarbonyl)amino)acetyl)octahydrocyclopenta[b]pyrrol-2-yl)-1,11-dihydroisochromeno[4′,3′:6,7]naphtho[1,2-d]imidazol-9-yl)-1H-imidazol-2-yl)hexahydrocyclopenta[b]pyrrol-l(2H)-yl)-1-((2R,6R)-2,6-dimethyltetrahydro-2H-pyran-4-yl)-2-oxoethyl)carbamate]", "EC50": 46.9}
{"smiles": "COC(=O)N[C@H](C(=O)N1[C@H](c2nc(Cl)c(-c3ccc4c(c3)COc3cc5ccc6[nH]c([C@@H]7C[C@@H]8CCC[C@@H]8N7C(=O)[C@@H](NC(=O)OC)C(C)(C)C(F)(F)F)nc6c5cc3-4)[nH]2)C[C@@H]2CCC[C@@H]21)C(C)(C)C(F)(F)F", "note": "[Compound 37, methyl ((S)-1-((2S,3aS,6aS)-2-(4-chloro-5-(2-((2S,3aS,6aS)-1-((S)-4,4,4-trifluoro-2-((methoxycarbonyl)amino)-3,3-dimethylbutanoyl)octahydrocyclopenta[b]pyrrol-2-yl)-1,11-dihydroisochromeno[4′,3′:6,7]naphtho[1,2-d]imidazol-9-yl)-1H-imidazol-2-yl)hexahydrocyclopenta[b]pyrrol-l(2H)-yl)-4,4,4-trilluoro-3,3-dimethyl-1-oxobutan-2-yl)carbamate]", "EC50": 13.3}
{"smiles": "COC(=O)N[C@H](C(=O)N1[C@@H](C)CC[C@H]1c1nc(C2CC2)c(-c2ccc3c(c2)COc2cc4c(ccc5nc([C@@H]6CC[C@H](C)N6C(=O)[C@@H](NC(=O)OC)C(C)(C)C(F)(F)F)[nH]c54)cc2-3)[nH]1)C(C)(C)C(F)(F)F", "note": "[Compound 41, methyl ((S)-1-((2S,5S)-2-(4-cyclopropyl-5-(2-((2S,5S)-5-methyl-1-((S)-4,4,4-trifluoro-2-((methoxycarbonyl)amino)-3,3-dimethylbutanoyl)pyrrolidin-2-yl)-1,11-dihydroisochromeno[4′,3′:6,7]naphtho[1,2-d]imidazol-9-yl)-1H-imidazol-2-yl)-5-methylpyrrolidin-1-yl)-4,4,4-trilluoro-3,3-dimethyl-1-oxobutan-2-yl)carbamate]", "EC50": 4.8}
{"tested_on": "ZIKV", "assay": "microbe, parasite or virus in culture", "assay_type": "cell-based, Zika virus", "details": "Zika virus, Huh-7; 48 hrs", "units": {"EC50": "nM"}}
{"smiles": "COC(=O)N[C@H](C(=O)N1[C@@H](C)CC[C@H]1c1nc(Cl)c(-c2ccc3c(c2)COc2cc4c(ccc5nc([C@@H]6CC[C@H](C)N6C(=O)[C@@H](NC(=O)OC)C(C)(C)CF)[nH]c54)cc2-3)[nH]1)C(C)(C)CF", "note": "[Compound 32, methyl ((S)-1-((2S,5S)-2-(4-chloro-5-(2-((2S,5S)-1-((S)-4-fluoro-2-((methoxycarbonyl)amino)-3,3-dimethylbutanoyl)-5-methylpyrrolidin-2-yl)-1,11-dihydroisochromeno[4′,3′:6,7]naphtho[1,2-d]imidazol-9-yl)-1H-imidazol-2-yl)-5-methylpyrrolidin-1-yl)-4-fluoro-3,3-dimethyl-1-oxobutan-2-yl)carbamate]", "EC50": 5.9}
{"smiles": "COC(=O)N[C@H](C(=O)N1[C@@H](C)CC[C@H]1c1nc(F)c(-c2ccc3c(c2)COc2cc4c(ccc5nc([C@@H]6CC[C@H](C)N6C(=O)[C@@H](NC(=O)OC)C(C)C)[nH]c54)cc2-3)[nH]1)C(C)C", "note": "[Compound 33, methyl ((S)-1-((2S,5S)-2-(9-(4-fluoro-2-((2S,5S)-1-((methoxycarbonyl)-L-valyl)-5-methylpyrrolidin-2-yl)-1H-imidazol-5-yl)-1,11-dihydroisochromeno[4′,3′:6,7]naphtho[1,2-d]imidazol-2-yl)-5-methylpyrrolidin-1-yl)-3-methyl-1-oxobutan-2-yl)carbamate]", "EC50": 77.3}
{"smiles": "COC(=O)N[C@H](C(=O)N1[C@@H](C)CC[C@H]1c1nc(C2CC2)c(-c2ccc3c(c2)COc2cc4c(ccc5nc([C@@H]6CC[C@H](C)N6C(=O)[C@@H](NC(=O)OC)C(C)C)[nH]c54)cc2-3)[nH]1)C(C)C", "note": "[Compound 38, methyl ((S)-1-((2S,5S)-2-(4-cyclopropyl-5-(2-((2S,5S)-1-((methoxycarbonyl)-L-valyl)-5-methylpyrrolidin-2-yl)-1,11-dihydroisochromeno[4′,3′:6,7]naphtho[1,2-d]imidazol-9-yl)-1H-imidazol-2-yl)-5-methylpyrrolidin-1-yl)-3-methyl-1-oxobutan-2-yl)carbamate]", "EC50": 25.9}
{"smiles": "CC[C@H](C)[C@H](NC(=O)OC)C(=O)N1[C@@H](C)CC[C@H]1c1nc(C2CC2)c(-c2ccc3c(c2)COc2cc4c(ccc5nc([C@@H]6CC[C@H](C)N6C(=O)[C@@H](NC(=O)OC)[C@@H](C)CC)[nH]c54)cc2-3)[nH]1", "note": "[Compound 39, methyl ((2S,3S)-1-((2S,5S)-2-(4-cyclopropyl-5-(2-((2S,5S)-1-((methoxycarbonyl)-L-isoleucyl)-5-methylpyrrolidin-2-yl)-1,11-dihydroisochromeno[4′,3′:6,7]naphtho[1,2-d]imidazol-9-yl)-1H-imidazol-2-yl)-5-methylpyrrolidin-1-yl)-3-methyl-1-oxopentan-2-yl)carbamate]", "EC50": 17.2}
{"smiles": "CC[C@@H](C)[C@H](NC(=O)OC)C(=O)N1[C@@H](C)CC[C@H]1c1nc(C2CC2)c(-c2ccc3c(c2)COc2cc4c(ccc5nc([C@@H]6CC[C@H](C)N6C(=O)[C@@H](NC(=O)OC)[C@H](C)CC)[nH]c54)cc2-3)[nH]1", "note": "[Compound 40, methyl ((2S,3R)-1-((2S,5S)-2-(4-cyclopropyl-5-(2-((2S,5S)-1-((methoxycarbonyl)-L-alloisoleucyl)-5-methylpyrrolidin-2-yl)-1,11-dihydroisochromeno[4′,3′:6,7]naphtho[1,2-d]imidazol-9-yl)-1H-imidazol-2-yl)-5-methylpyrrolidin-1-yl)-3-methyl-1-oxopentan-2-yl)carbamate]", "EC50": 25.1}
{"smiles": "COC(=O)N[C@H](C(=O)N1[C@@H](C)CC[C@H]1c1nc(C2CC2)c(-c2ccc3c(c2)COc2cc4c(ccc5nc([C@@H]6CC[C@H](C)N6C(=O)[C@@H](NC(=O)OC)C(C)(C)CF)[nH]c54)cc2-3)[nH]1)C(C)(C)CF", "note": "[Compound 42, methyl ((S)-1-((2S,5S)-2-(4-cyclopropyl-5-(2-((2S,5S)-1-((S)-4-fluoro-2-((methoxycarbonyl)amino)-3,3-dimethylbutanoyl)-5-methylpyrrolidin-2-yl)-1,11-dihydroisochromeno[4′,3′:6,7]naphtho[1,2-d]imidazol-9-yl)-1H-imidazol-2-yl)-5-methylpyrrolidin-1-yl)-4-fluoro-3,3-dimethyl-1-oxobutan-2-yl)carbamate]", "EC50": 21.4}
{"smiles": "COC(=O)N[C@H](C(=O)N1[C@@H](C)CC[C@H]1c1nc(C(C)C)c(-c2ccc3c(c2)COc2cc4c(ccc5nc([C@@H]6CC[C@H](C)N6C(=O)[C@@H](NC(=O)OC)C(C)C)[nH]c54)cc2-3)[nH]1)C(C)C", "note": "[Compound 43, methyl ((S)-1-((2S,5S)-2-(4-isopropyl-5-(2-((2S,5S)-1-((methoxycarbonyl)-L-valyl)-5-methylpyrrolidin-2-yl)-1,11-dihydroisochromeno[4′,3′:6,7]naphtho[1,2-d]imidazol-9-yl)-1H-imidazol-2-yl)-5-methylpyrrolidin-1-yl)-3-methyl-1-oxobutan-2-yl)carbamate]", "EC50": 57.7}
{"smiles": "CC[C@H](C)[C@H](NC(=O)OC)C(=O)N1[C@@H](C)CC[C@H]1c1nc(C(C)C)c(-c2ccc3c(c2)COc2cc4c(ccc5nc([C@@H]6CC[C@H](C)N6C(=O)[C@@H](NC(=O)OC)[C@@H](C)CC)[nH]c54)cc2-3)[nH]1", "note": "[Compound 44, methyl ((2S,3S)-1-((2S,5S)-2-(4-isopropyl-5-(2-((2S,5S)-1-((methoxycarbonyl)-L-isoleucyl)-5-methylpyrrolidin-2-yl)-1,11-dihydroisochromeno[4′,3′:6,7]naphtho[1,2-d]imidazol-9-yl)-1H-imidazol-2-yl)-5-methylpyrrolidin-1-yl)-3-methyl-1-oxopentan-2-yl)carbamate]", "EC50": 11.5}
{"smiles": "COC(=O)N[C@H](C(=O)N1[C@@H](C)CC[C@H]1c1nc(C(C)C)c(-c2ccc3c(c2)COc2cc4c(ccc5nc([C@@H]6CC[C@H](C)N6C(=O)[C@@H](NC(=O)OC)C(C)(C)C(F)(F)F)[nH]c54)cc2-3)[nH]1)C(C)(C)C(F)(F)F", "note": "[Compound 45, methyl ((S)-4,4,4-trifluoro-1-((2S,5S)-2-(4-isopropyl-5-(2-((2S,5S)-5-methyl-1-((S)-4,4,4-trifluoro-2-((methoxycarbonyl)amino)-3,3-dimethylbutanoyl)pyrrolidin-2-yl)-1,11-dihydroisochromeno[4′,3′:6,7]naphtho[1,2-d]imidazol-9-yl)-1H-imidazol-2-yl)-5-methylpyrrolidin-1-yl)-3,3-dimethyl-1-oxobutan-2-yl)carbamate]", "EC50": 4.9}
